Here are results for 2 compounds from PMC3102498 (Journal of neuro-oncology, 2010).

For series [1] the following is noted: cited from earlier work.
Series [2] is described as follows: Sorafenib plasma pharmacokinetics. Format: in vivo, human. To be noted: for sorafenib exposure (AUC0–24) on day 28, patients on vs not on EIAEDs: day 28 of cycle 1, P = 0.0431; for AUC(0-t): AUC0–8 (mean).
The nature of series [3]: Phase 2 trial toxicity graded according to NCI CTC version 2.
Series [4] is described as follows: Temozolomide exposure, continuous daily dosing compared to standard 5-day dosing. It counts as in vivo, human. To be noted: 50 mg/m2/day continuous compared to 150–200 mg/m2/day for 5 days each month.

For `CNC(=O)c1cc(Oc2ccc(NC(=O)Nc3ccc(Cl)c(C(F)(F)F)c3)cc2)ccn1` [Sorafenib], in series [1] (co-administration of rifampin, a CYP3A4 and UGT 1A9 inducer), the “reduction in sorafenib exposure” value is 37%. The “effect of ketoconazole co-administration on sorafenib” value in series [1] (ketoconazole (CYP3A inhibitor) with low-dose sorafenib 50 mg/day) was “did not result in unexpected adverse events or evidence of altered sorafenib pharmacokinetics”. Besides, the “sorafenib exposures, patients on vs not on EIAEDs” value in series [1] (phase I dose escalation study, malignant glioma patients, day one of cycle one) is “comparable”. In addition, in series [1] (prior pharmacokinetic studies), the “increase of sorafenib exposures over seven days (to steady-state)” value is 3–4 fold. The “sorafenib exposure on day 1, patients on vs not on EIAEDs” value in series [2] (day 1 of cycle 1) was “comparable”. Moreover, the “sorafenib exposure (AUC0–24) on day 28, patients on vs not on EIAEDs” value in series [2] is reported as “significantly lower on day 28 for patients on EIAEDs”; in series [2] (listed as sorafenib), “significantly higher on day 28 for patients not on EIAEDs”. The AUC(0-t) in series [2] (human, plasma, oral, 400 mg, patients not on EIAEDs, day 1, n = 5 per group) came to 11100 ng·h/mL; in series [2] (human, plasma, oral, 400 mg, patients not on EIAEDs, day 28, n = 5 per group), 52100 ng·h/mL. Further, in series [2] (human, plasma, oral, 400 mg, AUC(24) (mean), Non-EIAED patients, day 28 of cycle 1, plasma), the AUC was found to be 129000 ng·h/mL. The compound further showed a Cmax in series [2] (human, plasma, oral, 400 mg, C max (mean), Non-EIAED patients, day 28 of cycle 1, plasma) of 8120 ng/mL. For the same compound, the “difference in mean AUC0–8, day 28 vs day 1” value in series [2] (patients not on EIAEDs) is approximately 5 fold. Besides, the “sorafenib AUC0–24 day 28 compared to day 1” value is “significantly higher” in series [2] (patients not on EIAEDs, P = 0.0117) and “did not differ significantly” in series [2] (patients on EIAEDs, P = 0.7266). Also, the “Amylase/lipase, dose modification or discontinuation of sorafenib” value in series [3] (n = 32) is listed as 4 (13) number of patients (percent of. The “Palmer-Plantar Erythrodysesthesia, dose modification or discontinuation of sorafenib” value in series [3] (n = 32) is 3 (9) number of patients (percent of.

As for `Cn1nnc2c(C(N)=O)ncn2c1=O` [temozolomide, Temozolomide], the “patients requiring dose modification or discontinuation of daily temozolomide” value in series [3] (32 patients) was “none of the patients”. For the same compound, the “greater temozolomide exposure with continuous daily dosing” value in series [4] was 1.4–1.9 fold.

As a reminder, the AUC(0-t) is exposure summed from dosing to a finite time, without extrapolation to infinity. What is called AUC is concentration integrated over time. As a reminder, the Cmax is the highest concentration seen after dosing.
